# Data reported in ChEMBL document CHEMBL3792353, “Differentiation of ROMK potency from hERG potency in the phenacetyl piperazine series through heterocycle incorporation” (Bioorg Med Chem Lett, 2016).
# Columns and labels:
# Details in all cases: in vivo
# [1] = Half life of compound in Sprague-Dawley rat at 1 mg/kg, iv and 2 mg/kg, po; assay type: ADME, organism-based
# Rattus norvegicus = assay: Dose normalized AUC in Sprague-Dawley rat at 2 mg/kg, po; assay type: ADME, organism-based
# [2] = Oral bioavailability in Sprague-Dawley rat at 2 mg/kg; assay type: ADME, organism-based
# [3] = Oral bioavailability in rhesus monkey at […]; assay type: ADME, organism-based, Macaca mulatta
# [4] = Half life of compound in beagle dog at 0.5 mg/kg, iv; assay type: ADME, organism-based, Canis lupus familiaris
# Rhesus monkey = assay: Dose normalized AUC in rhesus monkey at 0.5 mg/kg, po; assay type: ADME, organism-based, Macaca mulatta
# Canis familiaris = assay: fCmax in vagotomized beagle dog at 10 mg/kg, iv administered as cumulative dose; assay type: ADME, organism-based, Canis lupus familiaris
# [5] = Half life of compound in rhesus monkey at 0.25 mg/kg, iv and 0.5 mg/kg, po; assay type: ADME, organism-based, Macaca mulatta
SMILES,half-life [1] [min],AUC/dose (Rattus norvegicus) [µM·kg·h/mg],bioavailability [2] [%],bioavailability [3] [%],half-life [4] [min],AUC/dose (Rhesus monkey) [µM·kg·h/mg],fCmax (Canis familiaris) [µM],half-life [5] [min]
Cc1c(C(F)CN2CCN(C(=O)Cc3ccc(-n4cnnn4)nc3)CC2)ccc2c1COC2=O (racemic),21,0.31,46,–,–,–,–,–
O=C1OCc2cc(CCN3CCN(C(=O)Cc4ccc(-n5cnnn5)cc4)CC3)ccc21,9.6,0.067,–,–,–,–,–,–
Cc1c(C(C)CN2CCN(C(=O)Cc3ccc(-n4cnnn4)nc3)CC2)ccc2c1COC2=O (racemic),57.6,0.45,25,–,–,–,–,–
Cc1c(CCN2CCN(C(=O)Cc3ccc(-n4cnnn4)nc3)CC2)ccc2c1COC2=O,26.4,0.84,38,< 1,78,0.001,21,66
Cc1cc(-n2cnnn2)cnc1CC(=O)N1CCN(CCc2ccc3c(c2C)COC3=O)CC1,19.8,0.35,18,–,–,–,–,–
